The target of assay [1] is T1, GST-Survivin120–CRM1 interaction (Homo sapiens, UniProt O15392).
T1 construct: the only published NMR structure originated from a truncated Survivin (aa 1-120) with improved solubility; made in house; host or cells: Escherichia coli soluBL21
As to the kind of experiment: Pull-down with GST-Survivin120 wildtype bait, CRM1 and RanQ69L. The settings on record: for CRM1: Peak area determined with ImageJ / CRM1 intensity_normalised on GST-Surv intensity (samples 1-14) / CRM1: Control w/o GST-Survivin subtracted (sample 16 or 23): CRM1 band; for CRM1: Peak area determined with ImageJ / CRM1 intensity_normalised on GST-Surv intensity (samples 1-14) / CRM1: Control w/o GST-Survivin subtracted (sample 16 or 23) / CRM1 intensity_normalised on GST-Surv intensity (samples 1-14) and CRM1 intensity w/o incubation (sample 15 or 22): samples 15-21 (WT); for CRM1: Control w/o GST-Survivin subtracted (sample 16 or 23): sample 16 subtracted; for GST-Surv: Peak area determined with ImageJ / GST-Surv: Control w/o GST-Survivin subtracted (sample 2 or 9): GST-Surv bait band; for GST-Surv: Peak area determined with ImageJ: samples 1-7 (WT according to the summary in r39-r41); for GST-Surv: Control w/o GST-Survivin subtracted (sample 2 or 9): samples 1-7 (WT), sample 2 subtracted; for Normalised CRM1 intensity, summary of replicates I and II: WT, w/o tweezer = 100, replicates I and II. Type of assay: binding. The method, then: Next, we investigated whether tweezer inhibition of the export complex assembly is compromised upon lysine mutations near the NES. Therefore, pull-down experiments were performed with recombinant GST-tagged Survivin120 wildtype and K90/103T as bait proteins, tweezers, recombinant CRM1 and RanQ69L (Fig. 7g). Controls lacking the Survivin baits were included, as well as isolated peptides without tweezer (Fig. 7h). […] However, for the double lysine mutant GST-Survivin120-K90/103T even the tweezer conjugates lost most of their inhibitory power toward the essential Survivin–CRM1 interaction.
All pull-down assays were performed at room temperature in pull-down buffer (PBS, pH 7.4, 1 mM DTT, 0.02 Triton X-100). GST fusion proteins were immobilized on 50 μL GSH-coated Sepharose 4B beads from GE Healthcare. The beads were prior equilibrated and blocked with 500 μL pull-down blocking buffer (PBS, pH 7.4, 1 (w/v) BSA, 1 mM DTT, 0.02 (v/v) Triton X-100) for 1 h to prevent unspecific binding.
For analysis of the effective inhibitory tweezer concentration, 200 μg 293T lysate with overexpressed Survivin142-HA was preincubated without ligand or with different concentrations (10 nM to 200 μM) of unmodified tweezer TW, TW-ELTL, TW-ELTLGEFL, or TW-LFEEGLLT for 1 h and then mixed with 35 μg GST-CRM1, 55 μg RanQ69L, and 2 mM dGTP. GSH-beads were incubated with this protein mixture for 2 h under rotation. For analysis of tweezer specificity, 40 μg GST-Survivin120 or GST-Survivin120-K90/103T point mutant was pre-bound to equilibrated GSH-beads in 500 μL pull-down buffer, containing additionally either no ligand or 50 μM unmodified tweezer TW, TW-ELTL, TW-ELTLGEFL, or peptides ELTL and ELTLGEFL, for 1 h under rotation. After washing and blocking, GSH-beads were incubated with a protein mixture consisting of 2 mM dGTP, 50 μg CRM1, and 50 μg RanQ69L for 2 h under rotation.
Samples of input and beads taken during pull-down experiments were ran on 12.5 SDS gels and transferred onto 0.2 µM PVDF membranes (Amersham Hybond P 0.2) using a PerfectBlue™ tank electro blotter (Peqlab) at 350 mA for 150 min. Membranes were blocked for 1 h using 5% milk powder in TBS buffer containing 0.1% Tween-20. Next, membranes were incubated in primary antibodies against HA (anti-HA, mouse monoclonal, BioLegend, Covance MMS-101R, 1:1,000), GST (anti-GST, mouse monoclonal, Santa Cruz Biotechnology Inc., sc-57753, 1:1000) or CRM1 (anti-CRM1, rabbit polyclonal, Novus Biologicals Ltd., NB100-79802, 1:10,000) overnight at 4 °C. Secondary horseradish peroxidase (HRP)-conjugated antibody (anti-mouse IgG-HRP, sheep, GE Healthcare, NXA931 or anti-rabbit IgG-HRP, donkey, GE Healthcare, NA934) was then added (1:10,000) for 1 h at room temperature. Chemiluminescence was detected and imaged using the Pierce ECL Plus Western Blotting Substrate kit (Thermo Fisher Scientific) and Chemidoc system (Bio-Rad) or film processor Cawomat 2000 IR (CAWO). Western blots were analyzed by densitometric analysis with ImageJ version 1.52p (U.S. National Institutes of Health), measuring the mean gray intensity of protein bands. Uncropped and unprocessed scans of western blots are deposited in the Source Data file.

The target in assay [2] is T2, Survivin120/CRM1_1-1062VLV430AAA complex (Homo sapiens, UniProt O15392).
T2 construct: the only published NMR structure originated from a truncated Survivin (aa 1-120) with improved solubility; GST with PreScission site (N); made in house; host or cells: E. coli BL21-CodonPlus-RIL (CRM1 mutant); E. coli soluBL21 (Survivin120)
T2 sequence (O15392 1-120, one chain of several): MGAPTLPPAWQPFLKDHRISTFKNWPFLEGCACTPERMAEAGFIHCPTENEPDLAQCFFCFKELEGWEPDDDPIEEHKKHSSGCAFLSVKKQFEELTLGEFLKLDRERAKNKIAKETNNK
Kind of assay: Fluorescence anisotropy titration of Atto488-Survivin120/CRM1 complex with tweezers. To be noted: for Anisotropy: Data 1; for IC50: fluorescence anisotropy, Atto488-Survivin120:CRM1 mutant 1:5, n = 1, read-out: IC50, disruption of Survivin–CRM1 complex. Type of assay: binding. The method, then: We also used fluorescence anisotropy experiments to investigate the ability of the tweezer molecules to disrupt the Survivin–CRM1 complex. Atto488-labeled Survivin120 was preincubated with the CRM1_1-1062VLV430AAA mutant[40] that binds Survivin irrespective of RanGTP and titrated with tweezers.
Fluorescence anisotropy was measured with a Jasco Spectrofluorometer FP-8300 in PBS buffer, pH 7.4, at 25 °C and data were collected with the software Spectra Manager™.
For the quantitative analysis of the Survivin120/CRM1 complex, Survivin120 was labeled with ATTO488-maleimide from Jenabioscience according to the manufacturer’s instructions and mixed with CRM1_1-1062VLV430AAA in a ratio of 1:5. The protein complex was then titrated with tweezers in several steps until a final concentration of approximately 180 μM tweezers was reached. Data were transformed to logarithmic scale and IC50 was fitted using the equation in GraphPad Prism 8:2 y=Amin+Amax−Amin/1+10^x−logIC50 where Amax is the anisotropy in the absence of tweezer, Amin is the anisotropy at the end titration, and x is the concentration of tweezer. Amax was constrained for each data set, whereas Amin and IC50 were fitted.

Setting [3] is: fraction of sample 15 (w/o Tweezer).
[4] abbreviates: Concentration of Tweezer 8.26446.
The mark [5] stands for this setting: Concentration of Tweezer 16.39344.
The mark [6] stands for this setting: Concentration of Tweezer 24.39024.
The mark [7] stands for this setting: Concentration of Tweezer 32.25806.
[8] abbreviates: Concentration of Tweezer 40.00000.
[9] abbreviates: Concentration of Tweezer 55.11811.
[10] abbreviates: Concentration of Tweezer 83.96947.
Where [11] appears, read: Concentration of Tweezer 136.69060.
Where [12] appears, read: Concentration of Tweezer 183.67350.

Experimental findings from article PMC7940618, “Specific inhibition of the Survivin–CRM1 interaction by peptide-modified molecular tweezers” (Nature Communications, 2021) are described below.

Each structure is given as a SMILES string. “And” between values parts separate entries of the source, which are not always exact repeats. Equal values may be shown once. Peptide text beside a SMILES is read from it.

T1 sequence (O15392 1-120): as the sequence (O15392 1-120, one chain of several) above

The IC50 is the midpoint of a concentration-inhibition curve. With `O=P(O)(O)Oc1c2c(c(OP(=O)(O)O)c3c1C1CC3c3cc4c(cc31)C1CC4c3ccccc31)C1CC2c2cc3c(cc21)C1CC3c2ccccc21` [TW, reference compound], in assay [1], the “CRM1: Peak area determined with ImageJ” value worked out at 21154.6. Besides, the “CRM1 intensity_normalised on GST-Surv intensity (samples 1-14)” value in assay [1] is reported as 0.3073. The “CRM1: Control w/o GST-Survivin subtracted (sample 16 or 23)” value in assay [1] is listed as 16296.9. In addition, the “GST-Surv: Peak area determined with ImageJ” value in assay [1] stood at 53864.7. In addition, the “GST-Surv: Control w/o GST-Survivin subtracted (sample 2 or 9)” value in assay [1] is 53029.3. Further, the “Normalised CRM1 intensity, summary of replicates I and II” value (shortened to “Normalised CRM1 intensity, summary”) in assay [1] was 86.9559% and 97.9595%. Besides, the “inhibition of the interaction between CRM1 and GST-Survivin120” value in assay [1] (pull-down, 50 µM ligand, wildtype) was “inactive”. Further, the “CRM1 intensity_normalised on GST-Surv intensity (samples 1-14) and CRM1 intensity w/o incubation (sample 15 or 22)” value (from here on “CRM1 intensity_normalised … (sample 15 or 22)”) in assay [1] (setting [3]) is 0.8696; in assay [1] (w/o Tweezer = 100), 86.9559%. In addition, the Anisotropy is 0.0578 in assay [2] (setting [4]); 0.0573 in assay [2] (setting [5]); 0.0568 in assay [2] (setting [6]); 0.0561 in assay [2] (setting [7]); 0.0556 in assay [2] (setting [8]); 0.0551 in assay [2] (setting [9]). The Anisotropy is reported as 0.0525 in assay [2] (setting [10]), 0.0507 in assay [2] (setting [11]), 0.0512 in assay [2] (setting [12]) and 0.0517 in assay [2] (Concentration of Tweezer 225.80650). Moreover, the IC50 in assay [2] is 53 µM and 53.4 µM.

Turning to `CC(C)C[C@H](NC(=O)[C@@H](NC(=O)[C@H](CC(C)C)NC(=O)[C@H](CCC(=O)O)NC(=O)Cn1cc(CCOP(=O)(O)Oc2c3c(c(OP(=O)(O)O)c4c2[C@H]2C[C@@H]4c4cc5c(cc42)[C@H]2C[C@@H]5c4ccccc42)[C@H]2C[C@@H]3c3cc4c(cc32)[C@H]2C[C@@H]4c3ccccc32)nn1)[C@@H](C)O)C(=O)O` [TW-ELTL], the “CRM1: Peak area determined with ImageJ” value in assay [1] amounted to 4951.05. The “CRM1 intensity_normalised on GST-Surv intensity (samples 1-14)” value in assay [1] came out at 0.007388. For the same molecule, the “CRM1: Control w/o GST-Survivin subtracted (sample 16 or 23)” value in assay [1] amounted to 93.343. In assay [1], the “GST-Surv: Peak area determined with ImageJ” value was found to be 13469.9. Also, in assay [1], the “GST-Surv: Control w/o GST-Survivin subtracted (sample 2 or 9)” value is 12634.6. In addition, the “Normalised CRM1 intensity, summary” value in assay [1] is 2.09% and 27.3879%. For the same molecule, the “CRM1 intensity_normalised … (sample 15 or 22)” value in assay [1] (setting [3]) came to 0.0209; in assay [1] (w/o Tweezer = 100), 2.09%. Besides, the Anisotropy in assay [2] (setting [4]) amounted to 0.0572; in assay [2] (setting [5]), 0.0560; in assay [2] (setting [6]), 0.0559; in assay [2] (setting [7]), 0.0551; in assay [2] (setting [8]), 0.0548; in assay [2] (setting [9]), 0.0528. Further, the Anisotropy in assay [2] (setting [10]) was determined as 0.0510; in assay [2] (setting [11]), 0.0501; in assay [2] (setting [12]) it was 0.0506. Moreover, the concentration for half-maximal inhibition (IC50) in assay [2] stood at 39 µM.

For the molecule `CC(C)C[C@H](NC(=O)[C@H](Cc1ccccc1)NC(=O)[C@H](CCC(=O)O)NC(=O)CNC(=O)[C@H](CC(C)C)NC(=O)[C@@H](NC(=O)[C@H](CC(C)C)NC(=O)[C@H](CCC(=O)O)NC(=O)Cn1cc(CCOP(=O)(O)Oc2c3c(c(OP(=O)(O)O)c4c2C2CC4c4cc5c(cc42)C2CC5c4ccccc42)C2CC3c3cc4c(cc32)C2CC4c3ccccc32)nn1)[C@@H](C)O)C(=O)O` [TW-ELTLGEFL] (HELM PEPTIDE1{[O=C(Cn1cc(CCOP(=O)(O)Oc2c3c(c(OP(=O)(O)O)c4c2C2CC4c4cc5c(cc42)C2CC5c4ccccc42)C2CC3c3cc4c(cc32)C2CC4c3ccccc32)nn1)[*:2]].E.L.T.L.G.E.F.L}$$$$V2.0), in assay [1], the “Normalised CRM1 intensity, summary” value is 18.4722% and 35.2764%. In addition, the “CRM1 intensity_normalised … (sample 15 or 22)” value in assay [1] (w/o Tweezer = 100) is on record as 18.4722%. For the same molecule, the concentration for half-maximal inhibition (IC50) in assay [2] was 12 µM and 11.6 µM.
